Columns and labels:
[1] = molecular target: T1, Vasopressin V1a (Homo sapiens, UniProt P37288); experiment: Off-target screening (Eurofins Cerep), V1a; assay type: binding
T1 construct: Eurofins Cerep SA (contract screening)

[2] = molecular target: T2, 5-HT transporter (Homo sapiens, UniProt P31645); experiment: Off-target screening (Eurofins Cerep), 5-HT transporter; assay type: binding
T2 construct: Eurofins Cerep SA (contract screen)

[3] = tested on: orthotopic HT-29 colon tumors; experiment: In vivo competition, orthotopic HT-29 model; set-up: species or system mice
Method: All animals were imaged using a Pearl® imager (LI-COR, Lincoln, NE) and an original FLARE® prototype. Animals with HT-29 tumors were imaged at 4 and 24 h post injection; animals with BxPC-3 and OSC-19 tumors at 4 h only. Animals with MCF-7 tumors were imaged at 0.5, 1, 2, 4, 6, 8, 24 and 48 h post injection. The specific and control images were normalized and regions of interest (ROIs) were selected using associated software. TBRs were calculated by dividing the tumor signal by the background signal. Based on our experience a TBR ≥ 2 is sufficient to discriminate between tumor and surrounding tissue.
The binding specificity of cRGD-ZW800-1 was explored in a competition experiment using an excess of unlabeled cRGD (200-fold excess) co-injected with a standard dose of 10 nmol cRGD-ZW800-1 (n = 4). Simultaneously, mice (n = 3) were injected with 10 nmol cRGD-ZW800-1 as positive control. All mice had orthotopic HT-29 colon tumors. Images were acquired at 4 and 24 h post-injection after which animals were sacrificed and organs were resected and scanned with Pearl®.

[4] = molecular target: T3, Serotonin 5-HT1B (Rattus norvegicus, UniProt P28564); experiment: Off-target screening (Eurofins Cerep), 5-HT1B; assay type: binding
T3 construct: Eurofins Cerep SA (contract screening)

[5] = molecular target: T4, Cholecystokinin CCK1 (CCKA) (Homo sapiens, UniProt P32238); experiment: Off-target screening (Eurofins Cerep), CCK1 (CCKA); assay type: binding
T4 construct: Eurofins Cerep SA (contract screening)

[6] = molecular target: T5, Muscarinic M2 (Homo sapiens, UniProt P08172); experiment: Off-target screening (Eurofins Cerep), M2; assay type: binding
T5 construct: Eurofins Cerep SA (contract screening)

[7] = tested on: HT-29 colorectal tumors; experiment: NIR fluorescence imaging, HT-29 colorectal tumors, dose-ranging; assay type: in vivo, mice
Method: To induce subcutaneous tumors, colorectal cancer cells (HT-29) were injected at 4 sites on the back (500,000 cells per spot). Subsequently, these colorectal tumor cells were transplanted on the colon of other mice, as described by Tseng et al.. Approximately 500,000 pancreatic tumor cells (BxPC-3) were injected into the pancreas, as previously described by Kim et al.. Approximately 40,000 oral tumor cells (OSC-19) were injected in the tongue, as previously described by van Driel et al.. Approximately 500,000 breast tumor cells (MCF-7) were injected in both sides of the mammary fat pad to induce breast cancer tumors.
All animals were imaged using a Pearl® imager (LI-COR, Lincoln, NE) and an original FLARE® prototype. Animals with HT-29 tumors were imaged at 4 and 24 h post injection; animals with BxPC-3 and OSC-19 tumors at 4 h only. Animals with MCF-7 tumors were imaged at 0.5, 1, 2, 4, 6, 8, 24 and 48 h post injection. […] TBRs were calculated by dividing the tumor signal by the background signal. […]
Mice were administered with 0.25 (HT-29 model only), 1.0, 10, or 30 nmol cRGD-ZW800-1 to evaluate tumor signals, biodistribution, and to calculate TBRs (n = 3 per dose group). At 4 h (BxPC-3 model) and 24 h (HT-29 model) after injection, mice were fully dissected and fluorescence intensity of their organs was measured.

[8] = molecular target: T6, COX1 (Homo sapiens, UniProt P23219); experiment: Off-target screening (Eurofins Cerep), COX1; assay type: biochemical
T6 construct: Eurofins Cerep SA (contract screen)

[9] = molecular target: T7, MAO-A (Rattus norvegicus, UniProt P21396); experiment: Off-target screening (Eurofins Cerep), MAO-A; assay type: binding
T7 construct: Eurofins Cerep SA (contract screen)

[10] = molecular target: T8, GR (steroid nuclear receptor) (Homo sapiens, UniProt P04150); experiment: Off-target screening (Eurofins Cerep), GR; assay type: binding
T8 construct: Eurofins Cerep SA (contract screen)

[11] = molecular target: T9, Muscarinic M3 (Homo sapiens, UniProt P20309); experiment: Off-target screening (Eurofins Cerep), M3; assay type: binding
T9 construct: Eurofins Cerep SA (contract screening)

[12] = molecular target: T10, Nicotinic channels N neuronal α4β2 (Homo sapiens, UniProt P17787+P43681); experiment: Off-target screening (Eurofins Cerep), N neuronal α4β2; assay type: binding
T10 construct: Eurofins Cerep SA (contract screen)

[13] = molecular target: T11, Cannabinoid CB1 (Homo sapiens, UniProt P21554); experiment: Off-target screening (Eurofins Cerep), CB1; assay type: binding
T11 construct: Eurofins Cerep SA (contract screening)

[14] = molecular target: Opioid κ (KOP) (Rattus norvegicus, UniProt P34975); experiment: biochemical; assay type: binding
[15] = tested on: Na+ channel (site 2); experiment: Off-target screening (Eurofins Cerep), Na+ channel; assay type: binding
Text: Off-target interactions are binding of tracers to other components on the cell surface than the actual target site. These non-specific interactions are often of low affinity and easily missed, but can have significant effects. We outsourced the screening for in vitro for off-target interactions of cRGD-ZW800-1 to Eurofins Cerep SA, Le bois l’Evêque, France. They assessed the percentage of inhibition of a reference compound in 44 selected targets, including G protein-coupled receptors (GPCRs), transporters, ion channels, nuclear receptors, kinases and other non-kinase enzymes. These targets were recommended by four major pharmaceutical companies. The complete list is included in Supplementary Table 1 of the Supplementary Data. Each assay was performed twice using 10 μM cRGD-ZW800-1 and a reference compound. Inhibition higher than 50% was considered to represent a significant effect of cRGD-ZW800-1. Results showing between 20% and 50% were considered weak to moderate effects, while lower than 20% was not considered significant and mostly attributable to variability of the signal around the control level.

[16] = molecular target: T12, Opioid δ (DOP) (Homo sapiens, UniProt P41143); experiment: Off-target screening (Eurofins Cerep), δ (DOP); assay type: binding
T12 construct: Eurofins Cerep SA (contract screening)

[17] = molecular target: T13, cyclooxygenase-2 (COX-2) (Homo sapiens, UniProt P35354); experiment: Off-target screening (Eurofins Cerep), COX2; assay type: biochemical
T13 construct: Eurofins Cerep SA (contract screen)

[18] = 10 μM cRGD-ZW800-1, format H, Ag, performed twice, read-out: % Inhibition of Control Specific Binding
[19] = 10 μM, mean of 2, read-out: % of Control Specific Binding Mean
[20] = 10 μM cRGD-ZW800-1, format H, An, performed twice, read-out: % Inhibition of Control Specific Binding
[21] = 10 μM cRGD-ZW800-1, format An, performed twice, read-out: % Inhibition of Control Specific Binding
[22] = 10 μM cRGD-ZW800-1, format H, performed twice, read-out: % Inhibition of Control Specific Binding
[23] = read-out: % Inhibition of Control Specific Binding
[24] = read-out: % of Control Specific Binding Mean

T1 sequence (P37288 whole entry): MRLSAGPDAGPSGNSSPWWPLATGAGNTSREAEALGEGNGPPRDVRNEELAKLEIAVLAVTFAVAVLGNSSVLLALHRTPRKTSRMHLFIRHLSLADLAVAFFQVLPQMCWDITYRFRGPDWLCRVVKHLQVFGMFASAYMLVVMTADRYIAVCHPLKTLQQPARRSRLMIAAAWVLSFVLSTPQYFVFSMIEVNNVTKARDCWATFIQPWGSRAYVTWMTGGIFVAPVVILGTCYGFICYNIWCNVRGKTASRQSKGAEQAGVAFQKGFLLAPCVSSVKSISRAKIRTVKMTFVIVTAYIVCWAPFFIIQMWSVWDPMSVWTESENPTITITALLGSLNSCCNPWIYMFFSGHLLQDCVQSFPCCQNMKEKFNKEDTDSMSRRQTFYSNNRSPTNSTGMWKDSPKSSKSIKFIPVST
T5 sequence (P08172 whole entry): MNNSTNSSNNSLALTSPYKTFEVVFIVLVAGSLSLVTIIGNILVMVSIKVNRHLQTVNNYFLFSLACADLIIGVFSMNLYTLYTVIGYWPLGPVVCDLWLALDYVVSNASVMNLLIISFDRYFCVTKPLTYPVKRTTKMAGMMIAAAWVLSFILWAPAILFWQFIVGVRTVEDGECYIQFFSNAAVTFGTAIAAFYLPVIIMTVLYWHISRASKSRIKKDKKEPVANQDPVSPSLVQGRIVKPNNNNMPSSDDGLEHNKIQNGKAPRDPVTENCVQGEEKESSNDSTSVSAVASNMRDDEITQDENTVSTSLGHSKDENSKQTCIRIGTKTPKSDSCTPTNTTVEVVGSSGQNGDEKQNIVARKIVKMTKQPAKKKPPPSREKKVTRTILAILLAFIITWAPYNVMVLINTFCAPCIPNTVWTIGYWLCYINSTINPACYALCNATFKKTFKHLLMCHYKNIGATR
T3 sequence (P28564 whole entry): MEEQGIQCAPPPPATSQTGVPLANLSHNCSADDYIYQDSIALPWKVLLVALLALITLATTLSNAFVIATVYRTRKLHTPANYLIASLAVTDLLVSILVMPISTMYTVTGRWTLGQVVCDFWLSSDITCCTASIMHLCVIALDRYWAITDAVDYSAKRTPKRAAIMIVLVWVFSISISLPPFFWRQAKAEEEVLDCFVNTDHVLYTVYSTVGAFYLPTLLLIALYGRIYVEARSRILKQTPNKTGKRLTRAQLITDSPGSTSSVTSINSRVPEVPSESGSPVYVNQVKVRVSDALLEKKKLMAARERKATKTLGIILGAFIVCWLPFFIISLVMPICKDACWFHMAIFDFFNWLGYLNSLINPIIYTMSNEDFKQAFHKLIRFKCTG
T12 sequence (P41143 whole entry): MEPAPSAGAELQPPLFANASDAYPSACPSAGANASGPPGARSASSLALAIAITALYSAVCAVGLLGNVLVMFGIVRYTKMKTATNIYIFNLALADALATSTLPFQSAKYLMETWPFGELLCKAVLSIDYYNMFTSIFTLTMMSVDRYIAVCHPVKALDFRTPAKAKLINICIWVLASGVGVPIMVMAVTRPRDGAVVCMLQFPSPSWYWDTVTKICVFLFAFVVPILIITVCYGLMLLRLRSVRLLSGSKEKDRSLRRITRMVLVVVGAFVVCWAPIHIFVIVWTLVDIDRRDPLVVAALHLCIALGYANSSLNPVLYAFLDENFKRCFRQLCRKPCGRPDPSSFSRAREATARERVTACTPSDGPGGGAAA
T13 sequence (P35354 18-604): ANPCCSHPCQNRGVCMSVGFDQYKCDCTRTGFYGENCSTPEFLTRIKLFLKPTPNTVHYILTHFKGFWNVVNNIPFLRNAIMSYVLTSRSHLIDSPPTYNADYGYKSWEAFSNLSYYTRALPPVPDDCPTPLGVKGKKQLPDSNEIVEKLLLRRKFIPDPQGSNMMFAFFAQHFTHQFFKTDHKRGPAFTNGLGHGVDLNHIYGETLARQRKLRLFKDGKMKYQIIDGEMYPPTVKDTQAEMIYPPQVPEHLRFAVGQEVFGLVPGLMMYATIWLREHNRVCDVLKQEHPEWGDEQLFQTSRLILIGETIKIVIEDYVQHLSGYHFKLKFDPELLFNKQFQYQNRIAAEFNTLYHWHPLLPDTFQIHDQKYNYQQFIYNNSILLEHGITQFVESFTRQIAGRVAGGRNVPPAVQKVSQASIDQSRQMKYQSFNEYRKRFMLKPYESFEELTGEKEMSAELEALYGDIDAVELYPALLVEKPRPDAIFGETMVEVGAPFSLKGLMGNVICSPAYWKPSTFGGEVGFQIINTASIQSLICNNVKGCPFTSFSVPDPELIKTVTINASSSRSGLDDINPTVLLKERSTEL
T8 sequence (P04150 whole entry): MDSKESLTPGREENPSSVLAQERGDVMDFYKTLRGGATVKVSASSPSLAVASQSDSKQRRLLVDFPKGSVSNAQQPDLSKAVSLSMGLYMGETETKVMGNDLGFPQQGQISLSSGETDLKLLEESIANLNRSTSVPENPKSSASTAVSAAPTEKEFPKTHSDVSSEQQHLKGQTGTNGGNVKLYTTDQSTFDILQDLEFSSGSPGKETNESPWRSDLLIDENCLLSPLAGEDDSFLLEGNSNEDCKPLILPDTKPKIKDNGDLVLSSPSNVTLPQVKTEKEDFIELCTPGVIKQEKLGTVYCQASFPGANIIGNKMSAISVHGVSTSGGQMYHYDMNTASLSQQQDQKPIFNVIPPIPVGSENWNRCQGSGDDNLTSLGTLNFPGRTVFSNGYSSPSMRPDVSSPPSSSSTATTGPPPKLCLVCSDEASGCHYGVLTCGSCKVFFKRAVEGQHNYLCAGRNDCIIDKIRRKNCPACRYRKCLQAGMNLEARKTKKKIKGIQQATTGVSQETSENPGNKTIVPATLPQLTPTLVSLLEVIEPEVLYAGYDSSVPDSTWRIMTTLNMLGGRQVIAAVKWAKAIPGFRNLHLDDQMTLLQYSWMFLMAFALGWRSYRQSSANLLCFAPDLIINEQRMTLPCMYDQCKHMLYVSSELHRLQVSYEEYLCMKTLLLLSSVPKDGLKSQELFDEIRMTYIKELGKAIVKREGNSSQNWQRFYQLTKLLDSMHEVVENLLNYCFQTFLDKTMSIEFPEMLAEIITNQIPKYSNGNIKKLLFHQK
T6 sequence (P23219 24-599): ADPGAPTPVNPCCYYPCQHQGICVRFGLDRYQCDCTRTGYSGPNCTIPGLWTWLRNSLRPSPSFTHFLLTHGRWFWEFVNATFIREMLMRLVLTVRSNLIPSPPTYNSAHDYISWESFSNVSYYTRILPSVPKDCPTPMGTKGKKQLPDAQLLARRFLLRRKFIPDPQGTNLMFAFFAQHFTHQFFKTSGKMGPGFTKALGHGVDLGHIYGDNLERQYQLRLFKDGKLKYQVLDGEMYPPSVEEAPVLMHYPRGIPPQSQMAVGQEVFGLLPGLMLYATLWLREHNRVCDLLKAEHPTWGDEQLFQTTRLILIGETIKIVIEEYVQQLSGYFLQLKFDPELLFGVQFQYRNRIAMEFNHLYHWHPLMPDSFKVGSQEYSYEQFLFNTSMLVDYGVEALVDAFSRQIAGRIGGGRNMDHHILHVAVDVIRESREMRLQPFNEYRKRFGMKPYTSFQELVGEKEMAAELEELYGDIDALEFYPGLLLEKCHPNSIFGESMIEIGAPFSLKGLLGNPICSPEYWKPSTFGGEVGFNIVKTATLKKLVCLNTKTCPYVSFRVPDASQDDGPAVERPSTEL
T2 sequence (P31645 whole entry): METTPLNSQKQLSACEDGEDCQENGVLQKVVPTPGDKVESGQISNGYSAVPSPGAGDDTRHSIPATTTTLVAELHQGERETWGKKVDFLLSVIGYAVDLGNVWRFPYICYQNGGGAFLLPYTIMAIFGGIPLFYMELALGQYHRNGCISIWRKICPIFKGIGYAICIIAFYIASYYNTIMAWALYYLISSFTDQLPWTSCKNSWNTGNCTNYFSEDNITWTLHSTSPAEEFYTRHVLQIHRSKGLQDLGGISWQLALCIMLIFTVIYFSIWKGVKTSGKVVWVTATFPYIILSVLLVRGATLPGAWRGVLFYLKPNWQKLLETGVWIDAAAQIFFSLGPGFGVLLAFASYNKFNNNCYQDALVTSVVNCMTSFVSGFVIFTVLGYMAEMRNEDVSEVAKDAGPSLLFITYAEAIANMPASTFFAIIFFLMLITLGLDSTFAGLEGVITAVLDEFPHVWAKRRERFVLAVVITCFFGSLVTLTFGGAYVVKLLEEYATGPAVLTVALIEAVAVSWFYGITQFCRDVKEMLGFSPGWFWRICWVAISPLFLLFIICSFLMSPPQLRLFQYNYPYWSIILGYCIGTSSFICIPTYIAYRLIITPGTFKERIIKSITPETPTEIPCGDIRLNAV
T7 sequence (P21396 whole entry): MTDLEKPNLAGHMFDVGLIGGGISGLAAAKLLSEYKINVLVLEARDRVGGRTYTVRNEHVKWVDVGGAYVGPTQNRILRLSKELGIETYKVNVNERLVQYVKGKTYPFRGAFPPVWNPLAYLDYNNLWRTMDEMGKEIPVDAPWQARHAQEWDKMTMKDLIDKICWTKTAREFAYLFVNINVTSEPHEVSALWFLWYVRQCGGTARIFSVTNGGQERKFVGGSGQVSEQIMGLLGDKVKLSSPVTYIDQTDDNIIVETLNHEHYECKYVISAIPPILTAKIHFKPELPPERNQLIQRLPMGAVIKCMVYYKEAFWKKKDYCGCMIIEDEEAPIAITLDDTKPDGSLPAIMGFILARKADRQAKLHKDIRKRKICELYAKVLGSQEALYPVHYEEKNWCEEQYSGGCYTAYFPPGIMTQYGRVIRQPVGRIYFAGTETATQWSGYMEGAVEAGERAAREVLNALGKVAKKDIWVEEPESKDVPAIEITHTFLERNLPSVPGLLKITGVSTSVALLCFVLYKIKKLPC

CC1(C)C(/C=C/C2=C(Oc3ccc(CCC(=O)NCCCC[C@@H]4NC(=O)[C@@H](Cc5ccc(O)cc5)NC(=O)[C@H](CC(=O)O)NC(=O)CNC(=O)[C@H](CCCNC(=N)N)NC4=O)cc3)C(=C/C=C3/N(CCC[N+](C)(C)C)c4ccc(S(=O)(=O)O)cc4C3(C)C)/CCC2)=[N+](CCC[N+](C)(C)C)c2ccc(S(=O)(=O)O)cc21 [cRGD-ZW800-1]
inhibition at 10 µM [1, 18]: 4% | remaining activity at 10 µM [1, 19]: 96% | inhibition at 10 µM [2, 20]: -3% | remaining activity at 10 µM [2, 19]: 103% | TBR at 4 h, control ([3]; 10 nmol cRGD-ZW800-1 alone, n = 3, healthy colon as background, mean ± SD): 3.2 ± 0.5 | TBR at 4 h, with unlabeled cRGD ([3]; 10 nmol cRGD-ZW800-1 co-injected with 2.0 μmol unlabeled cRGD (200-fold), n = 4, mean ± SD): 1.8 ± 0.4 | inhibition at 10 µM [4, 21]: 1% | remaining activity at 10 µM [4, 19]: 99.1% | inhibition at 10 µM [5, 18]: -8% | remaining activity at 10 µM [5, 19]: 108% | inhibition at 10 µM [6, 20]: -20% | remaining activity at 10 µM [6, 19]: 120% | TBRs at 4 and 24 h post injection ([7]; HT-29, 1, 10 and 30 nmol dose groups, n = 3 per dose group): > 2 | optimal dose ([7]; mice, doses of 0.25, 1.0, 10, 30 nmol explored, Pearl and FLARE): 10 nmol | inhibition at 10 µM [8, 22]: -8% | remaining activity at 10 µM [8, 19]: 108% | inhibition at 10 µM [9, 21]: 15% | remaining activity at 10 µM [9, 19]: 85% | inhibition at 10 µM [10, 18]: 10% | remaining activity at 10 µM [10, 19]: 89.9% | inhibition at 10 µM [11, 23]: -7% | remaining activity at 10 µM [11, 24]: 107% | inhibition at 10 µM [12, 18]: -11% | remaining activity at 10 µM [12, 19]: 111% | inhibition at 10 µM [13, 18]: -6% | remaining activity at 10 µM [13, 19]: 106% | inhibition at 10 µM [14, 23]: 19% | remaining activity at 10 µM [14, 24]: 81.2% | % Inhibition of Control Specific Binding ([15]; 10 μM cRGD-ZW800-1, format An, performed twice): 20% | % of Control Specific Binding Mean ([15]; 10 μM, mean of 2): 79.9% | inhibition at 10 µM [16, 18]: 14% | remaining activity at 10 µM [16, 19]: 85.5% | inhibition at 10 µM [17, 22]: 62% | remaining activity at 10 µM [17, 19]: 38%
